Activity calls are given as the source filed them. No cut-off for these calls is given here.
What was measured:
[1] = molecular target: T1, Transcriptional activator protein LuxR (Aliivibrio fischeri) (UniProt P12746); assay: Agonist activity at Vibrio fischeri LuxR expressed in Escherichia coli NM522 containing Photorhabdus luminescens LuxCDABE assessed as induction of quorum sensing activation mediated bioluminescence at 0.1 to 200 uM after 4 to 5 hrs by bioluminescence assay; type: functional
T1 sequence (whole entry): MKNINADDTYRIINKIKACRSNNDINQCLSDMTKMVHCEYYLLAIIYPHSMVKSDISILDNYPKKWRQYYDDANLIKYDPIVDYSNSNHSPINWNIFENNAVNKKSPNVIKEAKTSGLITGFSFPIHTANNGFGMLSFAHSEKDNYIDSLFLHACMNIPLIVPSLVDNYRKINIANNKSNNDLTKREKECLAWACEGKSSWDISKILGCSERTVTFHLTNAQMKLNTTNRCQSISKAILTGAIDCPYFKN

[2] = molecular target: T2, Transcriptional activator protein LuxR (Aliivibrio fischeri, UniProt P12746); assay: Antagonist activity at Vibrio fischeri LuxR expressed in Escherichia coli NM522 containing Photorhabdus luminescens LuxCDABE assessed as inhibition of 3-oxo-C6-HSL-induced quorum sensing activation mediated bioluminescence after 4 to 5 hrs by bioluminescence assay; type: functional
T2 sequence (P12746 whole entry): T1 sequence (whole entry)

Activity [1] | IC50 [2] [µM] | SMILES
inactive |  | CCCCCCN(C)C(=O)C1CCOC1=O (stereo not drawn)
inactive | 70 | CCCCCNS(=O)(=O)C1CCOC1=O (stereo not drawn)
 | 200 | CCCCCNC(=O)C1CCCC1O (mixture of isomers) [listing 1 of 2 here]
inactive | 52 | CCCCCCCCNC(=O)C1CCOC1=O (stereo not drawn)
inactive | 40 | CCCCCNC(=O)C1CCCC1=O (stereo not drawn)
inactive | 75 | CCCCCCCCCCNC(=O)C1CCOC1=O (stereo not drawn)
inactive | 54 | CCCCCCNC(=O)C1CCOC1=O (stereo not drawn)

Continued, molecule first:

SMILES | Activity [1] | IC50 [2] [µM]
CCCCNC(=O)C1CCOC1=O (stereo not drawn) | inactive | 96
CCCCCNC(=O)C1CCCC1O (stereo not drawn) |  | 92
CCCCN(C)C(=O)C1CCOC1=O (stereo not drawn) | inactive | 
CCCCCCCCNC(=O)C1CCCC1=O (stereo not drawn) | inactive | 77
CCCCCNC(=O)C1CCCC1O (mixture of isomers) [listing 2 of 2 here] | inactive | 
CCCCCNC(=O)C1CCOC1=O (stereo not drawn) | inactive | 34
CCCCNS(=O)(=O)C1CCOC1=O (stereo not drawn) | inactive | > 200
